Here are results for 14 molecules from patent US6608086B2, “Dihydropyridines and new uses thereof” (Synaptic Pharmaceutical Corporation, priority 1993, dated 2003).

SMILES strings stand for the structures. Where a name gives a salt, the structure may show the parent alone. Read-outs that look alike come from different tables or passages of the source.

Assay [1] concerns the target T1, α1A Human Adrenergic Receptor (Homo sapiens, UniProt P25100).
T1 construct: The entire coding region of α1A (1719 bp); expressed in transfected cells
T1 sequence (P25100 1-572): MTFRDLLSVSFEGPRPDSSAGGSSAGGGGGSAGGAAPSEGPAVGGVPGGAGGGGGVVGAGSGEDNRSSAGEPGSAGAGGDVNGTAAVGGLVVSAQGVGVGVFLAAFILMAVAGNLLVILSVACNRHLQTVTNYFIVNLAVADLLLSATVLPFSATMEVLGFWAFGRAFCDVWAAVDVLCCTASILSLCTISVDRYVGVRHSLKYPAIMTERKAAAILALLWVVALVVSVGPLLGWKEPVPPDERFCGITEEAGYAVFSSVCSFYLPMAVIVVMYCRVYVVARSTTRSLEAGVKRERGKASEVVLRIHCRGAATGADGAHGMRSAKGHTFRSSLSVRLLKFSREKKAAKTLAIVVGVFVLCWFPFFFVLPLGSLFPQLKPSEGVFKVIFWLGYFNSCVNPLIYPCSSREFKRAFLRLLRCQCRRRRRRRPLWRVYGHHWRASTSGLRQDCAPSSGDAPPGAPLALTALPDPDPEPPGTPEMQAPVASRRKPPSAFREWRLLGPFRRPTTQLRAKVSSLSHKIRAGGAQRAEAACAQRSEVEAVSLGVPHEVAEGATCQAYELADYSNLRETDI
Put plainly: Radioligand binding, [3H]prazosin, cloned human α1A adrenergic receptor. The method, boiled down:
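Membranes from LM(tk−) cells transfected with cloned human α1A receptor, prepared in 50 mM Tris-HCl, 1 mM MgCl2, 0.1% ascorbic acid pH 7.5, were incubated with 0.5 nM [3H]prazosin at 37° C for 20 min. Nonspecific binding was defined with 10 μM phentolamine; bound ligand was separated by GF/B filtration.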

Assay [2] concerns the target T2, α1C Human Adrenergic Receptor (Homo sapiens, UniProt P35348).
T2 construct: The entire coding region of α1C (1401 bp); expressed in transfected cells
T2 sequence (P35348 1-466): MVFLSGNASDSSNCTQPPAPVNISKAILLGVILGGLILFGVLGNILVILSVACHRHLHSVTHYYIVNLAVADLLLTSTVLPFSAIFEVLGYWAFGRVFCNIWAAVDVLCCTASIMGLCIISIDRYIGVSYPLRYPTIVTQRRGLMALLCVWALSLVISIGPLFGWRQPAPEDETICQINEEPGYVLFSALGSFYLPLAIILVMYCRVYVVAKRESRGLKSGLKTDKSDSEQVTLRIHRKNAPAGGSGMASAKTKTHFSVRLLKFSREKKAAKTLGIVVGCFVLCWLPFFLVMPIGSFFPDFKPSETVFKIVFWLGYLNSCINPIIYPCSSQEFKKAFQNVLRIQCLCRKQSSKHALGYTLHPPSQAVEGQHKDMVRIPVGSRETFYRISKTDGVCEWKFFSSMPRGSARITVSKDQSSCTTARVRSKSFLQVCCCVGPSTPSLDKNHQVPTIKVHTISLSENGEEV
Kind of assay: Radioligand binding, [3H]prazosin, cloned human α1C adrenergic receptor. The method, boiled down: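 Antagonist radioligand [3H]prazosin at 0.5 nM labels human α1C receptors in stably transfected LM(tk−) cell membranes over 20 min at 37° C. Phentolamine (10 μM) gives nonspecific binding.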

The target in assay [3] is T3, L-type calcium channel (Rattus norvegicus, UniProt P22002).
T3 construct: membrane fragments of rat cardiac muscle; from tissue; host or cells: rat cardiac muscle membranes
T3 sequence (P22002 whole entry, other chains not shown, the tested form may be a part): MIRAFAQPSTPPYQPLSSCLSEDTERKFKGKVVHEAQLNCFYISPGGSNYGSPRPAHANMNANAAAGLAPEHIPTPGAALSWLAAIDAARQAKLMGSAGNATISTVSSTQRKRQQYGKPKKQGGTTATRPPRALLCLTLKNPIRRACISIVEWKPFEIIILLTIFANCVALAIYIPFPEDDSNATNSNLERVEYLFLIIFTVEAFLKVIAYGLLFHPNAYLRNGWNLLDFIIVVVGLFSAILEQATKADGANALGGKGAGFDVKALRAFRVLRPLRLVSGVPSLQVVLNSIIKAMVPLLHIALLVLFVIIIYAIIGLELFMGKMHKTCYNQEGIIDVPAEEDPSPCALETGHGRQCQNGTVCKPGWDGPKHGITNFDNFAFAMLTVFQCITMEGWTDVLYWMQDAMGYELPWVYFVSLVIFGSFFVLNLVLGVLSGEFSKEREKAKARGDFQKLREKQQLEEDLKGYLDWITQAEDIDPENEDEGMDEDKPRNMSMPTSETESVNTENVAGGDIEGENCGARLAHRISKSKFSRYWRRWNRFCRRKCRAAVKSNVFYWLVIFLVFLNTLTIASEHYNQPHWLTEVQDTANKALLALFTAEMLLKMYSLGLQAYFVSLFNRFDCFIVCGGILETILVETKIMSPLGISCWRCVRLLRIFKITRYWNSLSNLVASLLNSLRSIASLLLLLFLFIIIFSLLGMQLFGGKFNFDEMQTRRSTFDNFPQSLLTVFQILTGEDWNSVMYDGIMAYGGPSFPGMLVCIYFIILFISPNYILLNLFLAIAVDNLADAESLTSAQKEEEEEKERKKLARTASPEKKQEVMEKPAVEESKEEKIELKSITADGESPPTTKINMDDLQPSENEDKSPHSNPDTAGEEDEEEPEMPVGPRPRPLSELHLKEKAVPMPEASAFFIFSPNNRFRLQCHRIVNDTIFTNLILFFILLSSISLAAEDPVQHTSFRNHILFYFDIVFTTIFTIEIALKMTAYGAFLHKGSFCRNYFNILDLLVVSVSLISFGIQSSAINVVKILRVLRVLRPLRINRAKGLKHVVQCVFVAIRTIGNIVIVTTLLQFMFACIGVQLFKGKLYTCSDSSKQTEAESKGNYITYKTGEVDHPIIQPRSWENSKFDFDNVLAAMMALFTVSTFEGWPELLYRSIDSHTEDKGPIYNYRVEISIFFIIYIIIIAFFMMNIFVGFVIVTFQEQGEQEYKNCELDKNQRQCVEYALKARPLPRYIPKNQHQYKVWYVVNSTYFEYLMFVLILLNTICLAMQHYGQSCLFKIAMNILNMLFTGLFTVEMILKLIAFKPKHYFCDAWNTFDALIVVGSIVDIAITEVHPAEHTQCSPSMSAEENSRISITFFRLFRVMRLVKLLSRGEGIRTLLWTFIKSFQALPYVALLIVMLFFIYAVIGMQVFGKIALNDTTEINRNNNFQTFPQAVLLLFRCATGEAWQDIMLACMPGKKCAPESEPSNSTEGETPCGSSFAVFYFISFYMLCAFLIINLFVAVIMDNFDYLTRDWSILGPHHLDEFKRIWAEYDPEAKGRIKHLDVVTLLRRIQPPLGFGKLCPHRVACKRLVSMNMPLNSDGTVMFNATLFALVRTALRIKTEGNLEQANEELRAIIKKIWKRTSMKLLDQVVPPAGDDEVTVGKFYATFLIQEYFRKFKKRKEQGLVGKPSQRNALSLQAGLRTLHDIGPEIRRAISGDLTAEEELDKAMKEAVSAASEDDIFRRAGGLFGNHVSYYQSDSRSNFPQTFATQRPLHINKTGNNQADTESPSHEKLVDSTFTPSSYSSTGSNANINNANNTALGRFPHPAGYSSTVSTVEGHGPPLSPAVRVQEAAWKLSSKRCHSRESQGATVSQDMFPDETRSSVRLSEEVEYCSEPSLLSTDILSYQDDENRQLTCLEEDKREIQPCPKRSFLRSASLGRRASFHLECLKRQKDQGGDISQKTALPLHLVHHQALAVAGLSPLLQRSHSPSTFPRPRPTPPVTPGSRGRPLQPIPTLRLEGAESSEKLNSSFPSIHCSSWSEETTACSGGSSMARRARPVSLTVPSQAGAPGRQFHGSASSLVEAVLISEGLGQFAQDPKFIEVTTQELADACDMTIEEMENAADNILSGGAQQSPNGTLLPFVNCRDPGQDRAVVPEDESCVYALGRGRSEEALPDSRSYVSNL
T3 sequence (P54290 25-944 partner limits assumed, other chains not shown): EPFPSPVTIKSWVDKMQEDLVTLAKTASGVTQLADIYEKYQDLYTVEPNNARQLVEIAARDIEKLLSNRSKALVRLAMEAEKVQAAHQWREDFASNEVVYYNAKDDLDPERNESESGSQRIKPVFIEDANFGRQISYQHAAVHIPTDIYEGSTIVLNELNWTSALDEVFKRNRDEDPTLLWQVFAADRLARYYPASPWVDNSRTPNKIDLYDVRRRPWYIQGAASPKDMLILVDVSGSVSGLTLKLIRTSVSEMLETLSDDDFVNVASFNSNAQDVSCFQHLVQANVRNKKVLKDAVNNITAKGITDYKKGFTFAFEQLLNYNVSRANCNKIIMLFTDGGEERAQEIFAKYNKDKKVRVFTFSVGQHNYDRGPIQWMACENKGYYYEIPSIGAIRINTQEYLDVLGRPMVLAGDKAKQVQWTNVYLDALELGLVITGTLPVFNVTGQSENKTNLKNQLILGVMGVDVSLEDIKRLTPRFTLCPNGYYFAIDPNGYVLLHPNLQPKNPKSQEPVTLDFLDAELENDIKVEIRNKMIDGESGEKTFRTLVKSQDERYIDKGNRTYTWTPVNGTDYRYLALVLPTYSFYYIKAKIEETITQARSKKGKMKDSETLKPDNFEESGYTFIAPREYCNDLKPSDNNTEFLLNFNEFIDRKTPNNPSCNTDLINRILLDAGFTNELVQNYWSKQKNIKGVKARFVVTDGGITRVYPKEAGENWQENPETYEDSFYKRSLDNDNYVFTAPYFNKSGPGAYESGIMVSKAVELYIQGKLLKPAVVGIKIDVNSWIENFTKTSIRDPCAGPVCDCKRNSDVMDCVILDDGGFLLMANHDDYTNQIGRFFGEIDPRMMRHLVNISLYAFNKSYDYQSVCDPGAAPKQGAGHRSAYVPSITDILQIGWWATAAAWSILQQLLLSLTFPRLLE
T3 sequence (P54290 945-1091 partner limits assumed, other chains not shown): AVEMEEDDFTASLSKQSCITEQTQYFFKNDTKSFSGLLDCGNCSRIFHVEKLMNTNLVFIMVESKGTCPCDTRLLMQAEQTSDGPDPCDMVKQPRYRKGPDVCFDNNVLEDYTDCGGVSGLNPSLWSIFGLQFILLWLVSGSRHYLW
Put plainly: Competition binding of [3H]nitrendipine to membrane fragments of rat cardiac muscle.

The mark [4] stands for this setting: [3H]prazosin, cloned human α1A receptor, LM(tk−) cell membranes.
The mark [5] stands for this setting: cloned human α1C receptor, LM(tk−) cell membranes.
Setting [6] is: [3H]nitrendipine, rat cardiac muscle membrane fragments, L-type calcium channel.
Setting [7] is: [3H]prazosin, cloned human receptor in LM(tk-) cell membranes, SEM and n in lines below, read-out: pKi alpha-1 1a (converted).
[8] abbreviates: cloned human receptor in LM(tk-) cell membranes, SEM and n in lines below, read-out: pKi alpha-1 1c (converted).
Setting [9] is: [3H]nitrendipine, rat cardiac muscle membranes, SEM and n in lines below, read-out: pKi Ca (converted).
The mark [10] stands for this setting: [3H]nitrendipine, rat cardiac muscle membrane fragments, L-type calcium channel, read-out: pKi Ca (converted).
Where [11] appears, read: [3H]prazosin, cloned human receptor in LM(tk-) cell membranes, SEM and n in lines below.
Where [12] appears, read: cloned human receptor in LM(tk-) cell membranes, SEM and n in lines below.
The mark [13] stands for this setting: [3H]nitrendipine, rat cardiac muscle membranes, SEM and n in lines below.
Where [14] appears, read: [3H]prazosin, cloned human α1A receptor, LM(tk−) cell membranes, read-out: pKi alpha-1 1a (converted).
[15] abbreviates: cloned human α1C receptor, LM(tk−) cell membranes, read-out: pKi alpha-1 1c (converted).

Turning to `COC(=O)C1(c2ccccc2)CCN(CCCNC(=O)C2=C(COCCN=[N+]=[N-])NC(C)=C(C(N)=O)C2c2ccc([N+](=O)[O-])cc2)CC1` (stereo not drawn) [Example 183, 2-[(2-Azidoethoxy)methyl]-5-carboxamido-1,4-dihydro-3-{N-[3-(4-methoxycarbonyl-4-phenylpiperidin-1-yl)propyl]}carboxamido-6-methyl-4-(4-nitrophenyl)pyridine], the Ki in assay [1] ([3H]prazosin, cloned human receptor, LM(tk-) cell membranes, mean, read-out: PKi alpha-1 1a (converted)) is 0.501 µM; in assay [2] (cloned human receptor, LM(tk-) cell membranes, mean, read-out: PKi alpha-1 1c (converted)), 0.000851 µM; in assay [3] ([3H]nitrendipine, rat cardiac muscle membranes, mean, read-out: PKi Ca (converted)) it was 74.1 µM.
As for `CCC1=C(C(N)=O)C(c2ccc([N+](=O)[O-])cc2)C(C(=O)NC2CCN(CCc3c[nH]c4ccccc34)CC2)=CN1CC` (stereo not drawn) [Example 123, 5-Carboxamido-1,6-diethyl-1,4-dihydro-3-(N-{1-[2-(3-indolyl)ethyl]piperidin-4-yl}) carboxamide-4-(4-nitrophenyl)pyridine], the “pKi alpha-1 1a” value in assay [1] (setting [4]) was 6.7. The “pKi alpha-1 1c” value in assay [2] (setting [5]) is recorded as 8.3. Moreover, the “pKi Ca” value in assay [3] (setting [6]) is on record as 4.53.
The like results for `CCC1=C(C(=O)NC)C(c2ccc([N+](=O)[O-])cc2)C(C(=O)NCCCN2CCC(C#N)(c3ccccc3)CC2)=C(CC)N1` (stereo not drawn) [Example 126, 3-{N-[3-(4-Cyano-4-phenylpiperidin-1-yl)propyl]}carboxamido-1,4-dihydro-2,6-diethyl-5-(1-methyl)carboxamido-4-(4-nitrophenyl)pyridine] were, in that order, 5.15, 7.95 and 6.34.
For the molecule `COC(=O)C1=C(C)NC(C)=C(C(=O)NCCCN2CCc3cc(OC)c(OC)cc3C2)C1c1ccc([N+](=O)[O-])cc1` (stereo not drawn) [Example 57, 1,4-Dihydro-3-methoxycarbonyl-5-{N-[3-(1,2,3,4-tetrahydro-6,7-dimethoxyisoquinolin-2-yl)propyl]}carboxamido-2,6-dimethyl-4-(4-nitrophenyl)pyridine hydrochloride hydrate], the values for the Ki in assay [1] (setting [7]), in assay [2] (setting [8]) and in assay [3] (setting [9]) were 1.62 µM, 0.603 µM and 1000 µM, respectively.
Take `CCC1=C(C(N)=O)C(c2ccc([N+](=O)[O-])cc2)C(C(=O)NCCCN2CCC(c3ccccc3)(c3ccccc3)CC2)=C(CC)N1` (stereo not drawn) [Example 120, 5-Carboxamido-2,6-diethyl-1,4-dihydro-4-(4-nitrophenyl)-3-{N-[3-(4,4-diphenylpiperidin-1-yl)propyl]} carboxamidopyridine]: the “pKi alpha-1 1a” value in assay [1] (setting [4]) amounted to 6.33. Besides, the “pKi alpha-1 1c” value in assay [2] (setting [5]) was determined as 8.97. Further, in assay [3] (setting [10]), the Ki was 1000 µM.
For `CCC1=C(C(=O)NC2CCN(Cc3ccccc3)CC2)C(c2ccc([N+](=O)[O-])cc2)C(C(=O)OC)=C(C)N1` (stereo not drawn) [Example 75, 2-Ethyl-1,4-dihydro-5-methoxycarbonyl-6-methyl-4-(4-nitro)phenyl-3-(N-(N-phenylmethyl)piperidin-4-yl)carboxamidopyridine hydrochloride], the Ki in assay [1] (setting [7]) is 4.37 µM; in assay [2] (setting [8]), 0.794 µM; in assay [3] (setting [9]), 3.55 µM.
Take `COC(=O)C1=C(C)NC(c2ccccc2)=C(C(=O)NCCCN2CCC(c3ccccc3)CC2)C1c1ccc([N+](=O)[O-])cc1.Cl` (stereo not drawn) [Example 79, 1,4-Dihydro-5-methoxycarbonyl-6-methyl-4-(4-nitro)phenyl-2-phenyl-3-(N-(3-(4-phenylpiperidin-1-yl)propyl)) carboxamidopyridine hydrochloride]: in assay [1] (setting [11]), the “pKi alpha-1 1a” value is given as 6.99. Moreover, in assay [2] (setting [12]), the “pKi alpha-1 1c” value came to 7.76. Further, the “pKi Ca” value in assay [3] (setting [13]) was 6.17.
For the molecule `COC(=O)C1=C(C)NC(C)=C(C(=O)NCCCCN2CCC(c3ccccc3)CC2)C1c1ccc([N+](=O)[O-])cc1` (stereo not drawn) [Example 3, 1,4-Dihydro-3-methoxycarbonyl-2,6-dimethyl-4-(4-nitrophenyl)-5-{N-[4-(4-phenylpiperidin-1-yl)butyl]}carbozamidopyridine hydrochloride hydrate], the Ki was 0.145 µM in assay [1] (setting [7]), 0.00589 µM in assay [2] (setting [8]) and 1000 µM in assay [3] (setting [9]).
In the case of `CCC1=C(C(N)=O)C(c2ccc([N+](=O)[O-])cc2)C(C(=O)NCCCN2CCN(c3ccccc3)CC2)=C(CC)N1` (stereo not drawn) [Example 104, 5-Carboxamido-2,6-diethyl-1,4-dihydro-4-(4-nitrophenyl)-3-{N-[3-(4-phenylpiperazin-1-yl)propyl]}carboxamido-pyridine hydrochloride hydrate], the Ki in assay [1] (setting [14]) was 0.132 µM; in assay [2] (setting [15]) it was 0.00324 µM; in assay [3] (setting [10]), 1000 µM.
On to `CNC(=O)C1=C(C)NC(C)=C(C(=O)NCCCN2CCC(c3ccccc3)(c3ccccc3)CC2)C1c1ccc([N+](=O)[O-])cc1` (racemic) [(±)-119, 1,4-Dihydro-2,6-dimethyl-5-(N-Methyl) carboxamido-4-(4-nitrophenyl)-3-{N-[3-(4,4-diphenylpiperidin-1-yl)propyl]}carboxamidopyridine], for which, in assay [1], the “pKi alpha-1 1a” value turned out to be 6.21. Further, in assay [2] (setting [5]), the “pKi alpha-1 1c” value was 8.5. The Ki in assay [3] (pKi Ca) is 7.41 µM.
As for `COc1ccccc1N1CCN(CCCNC(=O)C2=C(C)NC(C)=C(C(N)=O)C2c2ccc([N+](=O)[O-])cc2)CC1` (stereo not drawn) [Example 124], the Ki in assay [1] (setting [14]) was 0.0575 µM; in assay [2] (setting [15]), 0.00195 µM; in assay [3] (setting [10]), 1000 µM.
Consider `CCC1=C(C(=O)NCCCN2CCc3cc(OC)c(OC)cc3C2)C(c2ccc([N+](=O)[O-])cc2)C(C(N)=O)=C(C)N1.Cl.O` (stereo not drawn) [Example 76, 5-Carboxamido-2-ethyl-1,4-dihydro-3-(N-(3-(1,2,3,4-tetrahydro-6,7-dimethoxyisoquinolin-2-yl)propyl)) carboxamido-6-methyl-4-(4-nitro)phenylpyridine hydrochloride hydrate], for which the “pKi alpha-1 1a” value in assay [1] (setting [11]) amounted to 5.89. In addition, the “pKi alpha-1 1c” value in assay [2] (setting [12]) stood at 6.63. The “pKi Ca” value in assay [3] (setting [13]) came to 5.49.
For the molecule `CC1=C(C(N)=O)C(c2ccc([N+](=O)[O-])cc2)C(C(=O)NCCCN2CCC(C(=O)OCCC#N)(c3ccccc3)CC2)=CN1C` (stereo not drawn) [Example 209, 5-Carboxamido-3-{N-[3-(4-(2-cyanoethoxycarbonyl)-4-phenylpiperidin-1-yl)propyl]}carboxamido-1,4-dihydro-1,6-dimethyl-4-(4-nitrophenyl) pyridine], in assay [1] ([3H]prazosin, cloned human receptor, LM(tk-) cell membranes, mean), the “PKi alpha-1 1a” value amounted to 5.17. In addition, the “PKi alpha-1 1c” value in assay [2] (cloned human receptor, LM(tk-) cell membranes, mean) was found to be 8.41. The “PKi Ca” value in assay [3] ([3H]nitrendipine, rat cardiac muscle membranes, mean) came to 4.53.
Regarding `COC(=O)C1=C(C)NC(c2ccoc2)=C(C(=O)NCCCN2CCC(c3ccccc3)CC2)C1c1ccc([N+](=O)[O-])cc1` (stereo not drawn) [Example 65, 2-(Furan-3-yl)-1,4-dihydro-5-methoxycarbonyl-6-methyl-4-(4-nitrophenyl)-5-{N-[3-(4-phenylpiperidin-1-yl)propyl]}carboxamidopyridine hydrochloride hydrate], the figures for the Ki in assay [1] (setting [7]), in assay [2] (setting [8]) and in assay [3] (setting [9]) were 0.129 µM, 0.00105 µM and 3.09 µM, respectively.
